Type in all cases: cell-based
One experiment deals with E. coli No. 29. Kind of experiment: Antimicrobial activity test: MIC by the agar plate dilution method, E. coli No. 29. On the procedure: (§1) In order to investigate the in vitro activity of the under-mentioned compounds against various bacteria, the minimal inhibitory concentration (MIC) values were determined by the agar plate dilution method [see Chemotherapy, 22, 1126-1128 (1974)].
(§2) Each test inoculum was adjusted to 1×10^6 cells/ml (O.D., 600 mμ: 0.07-0.16).

For the next experiment, the system named is K. pneumoniae NCTC-9632. Put plainly: Antimicrobial activity test: MIC by the agar plate dilution method, K. pneumoniae NCTC-9632. As to conditions: inoculum 1×10^6 cells/ml. On the procedure: as §1, §2
The test system of the next experiment is P. mirabilis 1287. Kind of experiment: Antimicrobial activity test: MIC by the agar plate dilution method, P. mirabilis 1287. Particulars: P. mirabilis 1287; inoculum 1×10^6 cells/ml. On the procedure:
as §1, §2

The subject of another experiment is M. morganii ATCC-25830. Put plainly: Antimicrobial activity test: MIC by the agar plate dilution method, M. morganii ATCC-25830. As to conditions: inoculum 1×10^6 cells/ml. On the procedure:
as §1, §2

The subject of a further experiment is S. marcescens IFO-12648. Put plainly: Antimicrobial activity test: MIC by the agar plate dilution method, S. marcescens IFO-12648. On the procedure:
as §1, §2

Another experiment has as its system P. aeruginosa NCTC-10490. Put plainly: Antimicrobial activity test: MIC by the agar plate dilution method, P. aeruginosa NCTC-10490. As to conditions: inoculum 1×10^6 cells/ml. On the procedure:
as §1, §2

The mark [1] stands for this setting: E. coli No. 29, inoculum 1×10^6 cells/ml.
Setting [2] is: S. marcescens IFO-12648, inoculum 1×10^6 cells/ml.

Read-outs that look alike come from different tables or passages of the source.

On to “7-[2-(2-Aminothiazol-4-yl)-2-(2-fluoroethoxy)iminoacetamido]-3-[(1,3,4-thiadiazol-2-yl)thiomethyl-]-Δ^3 -O-2-isocephem-4-carboxylic acid trifluoroacetate (syn-isomer) [Example 49]”, for which the MIC (usually the lowest concentration found to suppress growth) is not above 0.025 µg/mL in the experiment with E. coli No. 29 (setting [1]); not above 0.025 µg/mL against K. pneumoniae NCTC-9632; not above 0.025 µg/mL in the experiment on P. mirabilis 1287; not above 0.025 µg/mL against M. morganii ATCC-25830; 0.1 µg/mL with S. marcescens IFO-12648 (setting [2]); 1.56 µg/mL in the experiment with P. aeruginosa NCTC-10490.
Take “7-[2-(2-Aminothiazol-4-yl)-2-[(pyrazol-3-yl)methoxyiminoacetamido]-3-[(1,3,4-thiadiazol-2-yl)thiomethyl]-Δ^3 -O-2-isocephem-4-carboxylic acid dihydrochloride (syn-isomer) [Example 24]”: the MIC with E. coli No. 29 was 0.39 µg/mL; with K. pneumoniae NCTC-9632, 0.39 µg/mL; in the experiment with P. mirabilis 1287, not above 0.025 µg/mL; in the experiment with M. morganii ATCC-25830 it was 0.1 µg/mL; with S. marcescens IFO-12648, 0.39 µg/mL; against P. aeruginosa NCTC-10490, 12.5 µg/mL.
With “7-[2-(2-Chloroacetamidothiazol-4-yl)-2-methoxyiminoacetamido]-3-[(1,3,4-thiadiazol-2-yl)thiomethyl]-Δ^3 -O-2-isocephem-4-carboxylic acid (syn-isomer) [Example 11]”, the MIC was 0.05 µg/mL in the experiment on E. coli No. 29 (setting [1]); 0.2 µg/mL against K. pneumoniae NCTC-9632; not above 0.025 µg/mL against P. mirabilis 1287; not above 0.025 µg/mL in the experiment with M. morganii ATCC-25830; 0.2 µg/mL in the experiment on S. marcescens IFO-12648 (setting [2]); 6.25 µg/mL in the experiment on P. aeruginosa NCTC-10490.
On to “(6S,7S)-7-[2-(2-Aminothiazol-4-yl)-2-cyclopropylmethyloxyiminoacetamido]-3- [(1,2,3-thiadiazol-5-yl)thiomethyl]-Δ^3 -O-2-isocephem-4-carboxylic acid (syn-isomer) [Example 65]”, for which the MIC against E. coli No. 29 (setting [1]) is 0.1 µg/mL; against K. pneumoniae NCTC-9632 it was 0.39 µg/mL; against P. mirabilis 1287, 0.2 µg/mL; against M. morganii ATCC-25830, 0.05 µg/mL; in the experiment with S. marcescens IFO-12648 it was 0.78 µg/mL; against P. aeruginosa NCTC-10490 it was 0.78 µg/mL.
With “Benzhydryl 7-[2-(2-tritylaminothiazol-4-yl)-2 -methoxyiminoacetamido]-3-[(1,2,3-thiadiazol-5-yl)thiomethyl]-Δ^3 -O-2-isocephem-4-carboxylate (syn-isomer) [Example 51]”, the MIC was not above 0.025 µg/mL in the experiment with E. coli No. 29 (setting [1]); not above 0.025 µg/mL against K. pneumoniae NCTC-9632; not above 0.025 µg/mL against P. mirabilis 1287; not above 0.025 µg/mL against M. morganii ATCC-25830; 0.1 µg/mL against S. marcescens IFO-12648 (setting [2]); 0.78 µg/mL with P. aeruginosa NCTC-10490.
On to “Benzhydryl 7-[2-(2-tritylaminothiazol-4-yl)-2-[(3-butenyl)oxyimino]acetamido]-3-[(1,3,4-thiadiazol-2-yl)thiomethyl]-Δ^3 -O-2-isocephem-4-carboxylate (syn-isomer) [Example 39]”, for which the MIC against E. coli No. 29 (setting [1]) worked out at 0.2 µg/mL; against K. pneumoniae NCTC-9632, 0.2 µg/mL; in the experiment on P. mirabilis 1287, 0.2 µg/mL; with M. morganii ATCC-25830, 0.39 µg/mL; against S. marcescens IFO-12648 it was 0.78 µg/mL; with P. aeruginosa NCTC-10490, 1.56 µg/mL.
Consider “Benzhydryl 7-[2-(2-tritylaminothiazol-4-yl)-2-allyloxyiminoacetamido]-3-[(1,3,4-thiadiazol-2-yl)thiomethyl]-Δ^3 -O-2-isocephem-4-carboxylate (syn-isomer) [Example 43]”, for which the MIC in the experiment on E. coli No. 29 was determined as 0.39 µg/mL; with K. pneumoniae NCTC-9632, 0.78 µg/mL; in the experiment on P. mirabilis 1287 it was 0.1 µg/mL; in the experiment on M. morganii ATCC-25830, 1.56 µg/mL; against S. marcescens IFO-12648 (setting [2]), 6.25 µg/mL; in the experiment with P. aeruginosa NCTC-10490, 50 µg/mL.
With “Benzhydryl 7-[2-(2-tritylaminothiazol-4-yl)-2-benzyloxyiminoacetamido]-3-[(1,3,4-thiadiazol-2-yl)thiomethyl]-Δ^3 -O-2-isocephem-4-carboxylate (syn-isomer) [Example 47]”, the minimal inhibitory concentration (MIC) against E. coli No. 29 (setting [1]) is not above 0.025 µg/mL; against K. pneumoniae NCTC-9632, not above 0.025 µg/mL; against P. mirabilis 1287, not above 0.025 µg/mL; with M. morganii ATCC-25830 it was not above 0.025 µg/mL; against S. marcescens IFO-12648 (setting [2]), 0.1 µg/mL; against P. aeruginosa NCTC-10490, 3.13 µg/mL.
For “Benzhydryl 7-[2-(2-tritylaminothiazol-4-yl)-2-cyanomethyloxyiminoacetamido]-3-[(1,2,3-thiadiazol-5-yl)thiomethyl]-Δ^3 -O-2-isocephem-4-carboxylate (syn-isomer) [Example 52]”, the minimum inhibitory concentration (MIC) in the experiment on E. coli No. 29 (setting [1]) was 0.1 µg/mL; in the experiment on K. pneumoniae NCTC-9632 it was 0.2 µg/mL; in the experiment on P. mirabilis 1287, 0.1 µg/mL; in the experiment with M. morganii ATCC-25830, 0.05 µg/mL; with S. marcescens IFO-12648, 0.78 µg/mL; in the experiment with P. aeruginosa NCTC-10490 it was 0.39 µg/mL.
On to “Benzhydryl 7-[2-(2-tritylaminothiazol-4-yl)-2-cyclopropylmethyloxyiminoacetamido]-3-[(1,2,3-thiadiazol-5-yl)thiomethyl]-Δ^3 -O-2-isocephem-4-carboxylate (syn-isomer) [Example 53]”, for which the minimal inhibitory concentration (MIC) in the experiment on E. coli No. 29 (setting [1]) came to 0.05 µg/mL; in the experiment with P. mirabilis 1287, 0.1 µg/mL; in the experiment on M. morganii ATCC-25830, 0.05 µg/mL; in the experiment on S. marcescens IFO-12648, 0.78 µg/mL; against P. aeruginosa NCTC-10490, 0.39 µg/mL.
Turning to “Benzhydryl (6S,7S)-7-[2-(2-aminothiazol-4-yl)-2-cyclopropylmethyloxyiminoacetamido]-3-[(1,2,3-thiadiazol-5-yl)thiomethyl]-Δ^3 -O-2-isocephem-4-carboxylate (syn-isomer) [Example 64]”, the MIC was not above 0.025 µg/mL in the experiment with E. coli No. 29 (setting [1]); not above 0.025 µg/mL in the experiment with K. pneumoniae NCTC-9632; not above 0.025 µg/mL against P. mirabilis 1287; not above 0.025 µg/mL against M. morganii ATCC-25830; 0.05 µg/mL against S. marcescens IFO-12648 (setting [2]); 1.56 µg/mL in the experiment on P. aeruginosa NCTC-10490.
Take “Benzhydryl (6S,7S)-7-[2-(2-tritylaminothiazol-4-yl)-2-cyclopropylmethyloxyiminoacetamido]-3-[(1,2,3-thiadiazol-5-yl)thiomethyl]-Δ^3 -O-2-isocephem-4-carboxylate (syn-isomer) [Example 63]”: the minimum inhibitory concentration (MIC) was not above 0.025 µg/mL in the experiment with E. coli No. 29 (setting [1]); not above 0.025 µg/mL in the experiment on K. pneumoniae NCTC-9632; not above 0.025 µg/mL against P. mirabilis 1287; 0.05 µg/mL against S. marcescens IFO-12648 (setting [2]); 0.78 µg/mL against P. aeruginosa NCTC-10490.
In the case of “Benzyl 7-[2-(2-chloroacetamidothiazol-4-yl)-2-methoxyiminoacetamido]-3-[(carbamoyloxy)methyl]-Δ^3 -O-2-isocephem-4-carboxylate (syn-isomer) [Example 1]”, the minimal inhibitory concentration (MIC) with E. coli No. 29 (setting [1]) was not above 0.025 µg/mL; against P. mirabilis 1287 it was not above 0.025 µg/mL; against S. marcescens IFO-12648 (setting [2]), 0.1 µg/mL; with P. aeruginosa NCTC-10490 it was 3.13 µg/mL.
“Benzyl 7-[2-(2-chloroacetamidothiazol-4-yl)-2allyloxyiminoacetamido]-3-[(1,3,4-thiadiazol-2-yl)thiomethyl]-Δ^3 -O-2-isocephem-4-carboxylate (syn-isomer) [Example 14]”: the MIC in the experiment with E. coli No. 29 (setting [1]) was 0.05 µg/mL; in the experiment with K. pneumoniae NCTC-9632, 0.1 µg/mL; against P. mirabilis 1287 it was not above 0.025 µg/mL; against S. marcescens IFO-12648 (setting [2]), 0.1 µg/mL; in the experiment on P. aeruginosa NCTC-10490, 3.13 µg/mL.
